Experimental data: US7816397B2, “Phenylcarboxylic acid derivatives and use thereof for the treatment of diabetes” (Merck Patent GmbH, priority 2004, dated 2010)

tested on: INS-1 cells; assay: Insulin secretion test on INS-1 cells; assay type: cell-based; conditions: Rattus norvegicus, INS1, test compound concentration 10^−5 M, read-out: INS-1 Test concentration 10^−5 M % (Sec INS, percentage of insulin secretion)
Text: Insulin Secretion Test on INS-1 Cells
According to the method described in Endocrinology, 1992 vol. 130 (1) pp. 167-178
Sec INS corresponds to the percentage of insulin secretion.
C corresponds to the concentration of test compound according to the invention.

Compound | activity at 10 µM
O=C(O)c1ccccc1CCCc1ccccc1NS(=O)(=O)c1ccc2ccccc2c1 [Compound 117] | 175%
N#Cc1ccccc1S(=O)(=O)Nc1ccccc1CCc1ccccc1C(=O)O [Compound 655] | 147%
O=C(O)c1ccccc1CCCCCc1ccccc1NS(=O)(=O)c1cccc2cccnc12 [Compound 168] | 256%
CCS(=O)(=O)Nc1ccccc1CCCCCc1ccccc1C(=O)O [Compound 157] | 203%
CCC(C)(C)c1ccc(S(=O)(=O)Nc2ccccc2CCc2ccccc2C(=O)O)cc1 [Compound 654] | 148%
CCCCc1ccc(S(=O)(=O)Nc2ccccc2CCc2ccccc2C(=O)O)cc1 [Compound 642] | 140%
Cc1ccc(S(=O)(=O)Nc2ccccc2CCCc2ccccc2C(=O)O)c(C)c1 [Compound 109] | 162%
O=C(O)c1ccccc1CCCCCc1ccccc1NS(=O)(=O)c1ccccc1F [Compound 152] | 202%
Cc1cc(C)c(S(=O)(=O)Nc2ccccc2CCCc2ccccc2C(=O)O)c(C)c1 [Compound 121] | 184%
COc1cc(C)c(S(=O)(=O)Nc2ccccc2CCCCCc2ccccc2C(=O)O)c(C)c1C [Compound 158] | 182%
O=C(O)c1ccccc1CCc1ccccc1NS(=O)(=O)/C=C/c1ccccc1 [Compound 639] | 144%
CC(C)c1ccc(S(=O)(=O)Nc2ccccc2CCCCCc2ccccc2C(=O)O)cc1 [Compound 164] | 180%
CN(C)c1cccc2c(S(=O)(=O)Nc3ccccc3CCCCCc3ccccc3C(=O)O)cccc12 [Compound 159] | 269%
Cc1ccc(S(=O)(=O)Nc2ccccc2CCCCCc2ccccc2C(=O)O)cc1 [Compound 144] | 191%
O=C(O)c1ccccc1CCc1ccccc1NS(=O)(=O)c1ccc(S(=O)(=O)c2ccccc2)s1 [Compound 650] | 139%
Cc1ccc(S(=O)(=O)Nc2ccccc2CCCCCc2ccccc2C(=O)O)c(C)c1 [Compound 151] | 190%

tested on: isolated islets of Langerhans; assay: Insulin secretion test on islets isolated from rats (static incubation, stimulation factor); assay type: cell-based; conditions: compound 10^−5 M; 90 minutes incubation; glucose 2.8 mM or 8 mM (not given); stimulates if factor >= 130%
Protocol: Insulin Secretion Test on Islets Isolated from Rats
The effect of the compounds on insulin secretion as a function of the glucose concentration was tested, in vitro, in isolated islets of Langerhans in static incubation.
The islets Langerhans obtained by digestion of exocrine pancreatic tissue with collagenase, followed by purification on a Ficoll gradient, are incubated for 90 minutes in the presence of two concentrations of glucose (2.8 mM or 8 mM), in the presence or absence of the chemical compound. The insulin secretion is assayed by RIA in the incubation medium.
The potential of the various chemical compounds to stimulate insulin secretion is estimated by calculating the stimulation factor*.
A compound stimulates insulin secretion if this factor is greater than or equal to 130% for a given dose of glucose.
G=insulin secretion (pmol/min. islet) in the presence of glucose alone
G+P=insulin secretion (pmol/min. islet) in the presence of the same concentration of glucose and of the test compound.

Compound | Isolated islets 10^−5 M (stimulation factor of insulin secretion)
O=C(O)c1ccccc1CCCCCc1ccccc1NS(=O)(=O)c1cccc2cccnc12 [Compound 168] | +236%
COc1cc(C)c(S(=O)(=O)Nc2ccccc2CCCCCc2ccccc2C(=O)O)c(C)c1C [Compound 158] | +166%

same assay, conditions: compound 10^−7 M; 90 minutes incubation; glucose 2.8 mM or 8 mM (not given); stimulates if factor >= 130%

Compound | Isolated islets 10^−7 M (stimulation factor of insulin secretion)
O=C(O)c1ccccc1CCCCCc1ccccc1NS(=O)(=O)c1cccc2cccnc12 [Compound 168] | +169%
COc1cc(C)c(S(=O)(=O)Nc2ccccc2CCCCCc2ccccc2C(=O)O)c(C)c1C [Compound 158] | +135%

tested on: n0-STZ/sucrose rats; assay: In vivo oral glucose tolerance test (OGTT) after daily treatment for 7 days; set-up: species or system Rats Wistar; conditions: 100 mg/kg/day for 7 days; OGTT 120 minutes
Protocol: To evaluate the effect of 2-{2-[4-(4-chlorobenzenesulfonylamino)phenyl]-ethyl}benzoic acid (compound 522) on the glucose tolerance of n0-STZ/sucrose rats, after a daily treatment for 7 days.
Rats Wistar (origin: Charles River, France), which received an injection of streptozotocin (100 mg/kg i.v.) on the day of birth. On their arrival at the Research Centre, at seven weeks old:
• 9 rats were placed on a standard diet (A04, SAFE). • 19 rats were placed on a sucrose-rich diet (58% sucrose, SAFE).
After 2 months on the diet, the rats on the sucrose diet were divided randomly into 2 subgroups (control diabetic, treated diabetic).
The three groups were then treated daily for 7 days, with excipient (0.5% methylcellulose solution) for the control group (healthy animals) and the diabetic control group, or with product (compound 522, 100 mg/kg/day) for the third group.
Glucose Tolerance Test (OGTT):
After treatment for 7 days, the animals were fasted for 3 hours before the start of the test. Samples were taken from the tail of the conscious rats. The first blood sample was taken 10 minutes before the administration of glucose (2 g/kgbody weight/oral route). Blood was then taken 10, 20, 30, 45, 60, 90 and 120 minutes after the administration of glucose.
The glucose tolerance was evaluated by means of the ΔAUC glc, which represents the cumulative increase in glycaemia above the basal value over the 120 minutes of the test.
The insulin response to glucose was estimated by means of the ΔAUC Ins, which represents the cumulative increase in insulinaemia above the basal value over the 120 minutes of the test.

Compound | ΔAUC insulin, treated versus diabetic controls (in words)
O=C(O)c1ccccc1CCc1ccc(NS(=O)(=O)c2ccc(Cl)cc2)cc1 [Compound 522, 2-{2-[4-(4-chlorobenzenesulfonylamino)phenyl]-ethyl}benzoic acid] | unchanged

same assay, conditions: 100 mg/kg/day for 7 days; OGTT glucose 2 g/kg oral, 120 minutes; significant p<0.05

Compound | ΔAUC glucose down by, treated rats compared with the diabetic controls
O=C(O)c1ccccc1CCc1ccc(NS(=O)(=O)c2ccc(Cl)cc2)cc1 [Compound 522, 2-{2-[4-(4-chlorobenzenesulfonylamino)phenyl]-ethyl}benzoic acid] | 21%

same assay, conditions: treated rats, 100 mg/kg/day for 7 days; OGTT 120 minutes; diabetic controls 11417+/−1440

Compound | ΔAUC insulin (cumulative increase in insulinaemia above the basal value)
O=C(O)c1ccccc1CCc1ccc(NS(=O)(=O)c2ccc(Cl)cc2)cc1 [Compound 522, 2-{2-[4-(4-chlorobenzenesulfonylamino)phenyl]-ethyl}benzoic acid] | 14494 ± 665 pmol·min

same assay, conditions: treated rats, 100 mg/kg/day for 7 days; OGTT 120 minutes; diabetic controls 33306+/−1403

Compound | ΔAUC glucose (cumulative increase in glycaemia above the basal value)
O=C(O)c1ccccc1CCc1ccc(NS(=O)(=O)c2ccc(Cl)cc2)cc1 [Compound 522, 2-{2-[4-(4-chlorobenzenesulfonylamino)phenyl]-ethyl}benzoic acid] | 26438 ± 2255 mg·min/dL
